Source: publication PMC9143880, “Improving Antimicrobial Activity and Physico-Chemical Properties by Isosteric Replacement of 2-Aminothiazole with 2-Aminooxazole” (Pharmaceuticals, 2022)
Values after ≈ are worked out from the molar mass of the structure shown. Read-outs that look alike come from different tables or passages of the source.

Key:
[1] = RP-UHPLC lipophilicity parameter log k’w; type: physicochemical; conditions: for log k’w: RP-UHPLC, acetonitrile/water, log k extrapolated to 0% acetonitrile; for logkw: experimental lipophilicity parameter
Method in brief: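 Retention was measured once per eluent composition: subtype I at 40/45/50% and subtype II at 20/30/40% acetonitrile in water, isocratic RP-UHPLC. log k values from these runs gave the lipophilicity index log k’w.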

[2] = system: HepG2 cells; assay: HepG2 cytotoxicity screening (CellTiter 96); type: cell-based, human; conditions: for IC50: Homo sapiens, HepG2, 24 h, 24 h incubation, CellTiter 96, * above highest tested concentration, ** limited by insolubility in medium; for SI: SI = IC50 (µM) HepG2 / MICH37Ra (µM)
[3] = system: Mycobacterium tuberculosis H37Ra ITM-M006710 (ATCC 9431); assay: Antimycobacterial MIC, microdilution broth / Alamar Blue (resazurin); type: cell-based; conditions: Mycobacterium tuberculosis
[4] = system: M. smegmatis DSM 43465 (ATCC 607); assay: Antimycobacterial MIC, microdilution broth / resazurin; type: cell-based; conditions: Mycolicibacterium smegmatis; resazurin after 48 h; read-out: MIC M. smegmatis
[5] = system: M. aurum DSM 43999 (ATCC 23366); assay: as above; type: cell-based; conditions: Mycolicibacterium aurum, read-out: MIC M. aurum
[6] = Kinetic water solubility (water-induced precipitation of DMSO stock, UHPLC); type: physicochemical; conditions: for solubility: water (DMSO stock diluted with water), 18 °C, kinetic from dmso stock
Description: A low value of log P is often presumed to be related to increased water solubility, although this might not always be the case since log P is a measure of relative solubility of the compound in the lipophilic and hydrophilic solvents (at equilibrium). Therefore, to be sure, we tested whether the lowered log k’w (related to log P) of the oxazole derivatives would also translate to increased solubility in water in a few representative derivatives. The water solubility of selected compounds was assessed by the kinetic method based on water-induced precipitation of DMSO stock solutions of tested compounds due to reasons described by Azzali and colleagues.
Water solubility was investigated using the kinetic solubility method. The sample (1 mg) was dissolved in the smallest amount of DMSO needed, 25 or 50 μL for subtype I and subtype II compounds, respectively. The samples were mixed at 18 °C in a thermomixer (Thermomixer comfort, Eppendorf, Hamburg, Germany) for 1 h. After mixing, the samples were diluted with water to a concentration of 500 μM, and the precipitate was observed. The sample was filtered through a 0.22 μm filter and diluted to be evaluated by UHPLC. The log S parameter was calculated from the experimental solubility in molar concentration. The samples were measured using the same instrument, software, and column as used in the purity evaluation.

[7] = system: Staphylococcus aureus subsp. aureus CCM 4223 (ATCC 29213); assay: Antibacterial microdilution broth (EUCAST); type: cell-based; conditions: Staphylococcus aureus; 24h incubation; read-out: MIC SA
[8] = system: Staphylococcus aureus subsp. aureus (MRSA) CCM 4750 (ATCC 43300); assay: Antibacterial microdilution broth (EUCAST); type: cell-based; conditions: Staphylococcus aureus; 24h incubation; read-out: MIC MRSA
[9] = system: Staphylococcus epidermidis CCM 4418 (ATCC 12228); assay: Antibacterial microdilution broth (EUCAST); type: cell-based; conditions: Staphylococcus epidermidis; 24h incubation; read-out: MIC SE
[10] = system: Enterococcus faecalis CCM 4224 (ATCC 29212); assay: Antibacterial microdilution broth (EUCAST); type: cell-based; conditions: Enterococcus faecalis; 24h incubation; read-out: MIC EF
[11] = system: Escherichia coli CCM 3954 (ATCC 25922); assay: Antibacterial microdilution broth (EUCAST); type: cell-based; conditions: Escherichia coli; 24h incubation; read-out: MIC EC
[12] = system: Acinetobacter baumannii DSM 30007 (ATCC 19606); assay: Antibacterial microdilution broth (EUCAST); type: cell-based; conditions: Acinetobacter baumannii; 24h incubation; read-out: MIC AB
[13] = system: Pseudomonas aeruginosa CCM 3955 (ATCC 27853); assay: Antibacterial microdilution broth (EUCAST); type: cell-based; conditions: Pseudomonas aeruginosa; 72h incubation; read-out: MIC PA
[14] = system: Candida albicans CCM 8320 (ATCC 24433); assay: Antifungal microdilution broth (EUCAST); conditions: Candida albicans, 24 h, read-out: MIC CA
[15] = system: Candida krusei CCM 8271 (ATCC 6258); assay: Antifungal microdilution broth (EUCAST); conditions: Pichia kudriavzevii, 24 h, read-out: MIC CK
[16] = system: Candida parapsilosis CCM 8260 (ATCC 22019); assay: Antifungal microdilution broth (EUCAST); conditions: Lodderomyces parapsilosis, 24 h, read-out: MIC CP
[17] = system: Candida tropicalis CCM 8264 (ATCC 750); assay: Antifungal microdilution broth (EUCAST); conditions: Candida tropicalis, 24 h, read-out: MIC CT
[18] = system: Aspergillus fumigatus ATCC 204305; assay: Antifungal microdilution broth (EUCAST); conditions: Aspergillus fumigatus, ATCC204305, 24 h, read-out: MIC AF
[19] = system: Aspergillus flavus CCM 8363; assay: Antifungal microdilution broth (EUCAST); conditions: Aspergillus flavus, CCM8363, 24 h, read-out: MIC AFla
[20] = system: Lichtheimia corymbifera CCM 8077; assay: Antifungal microdilution broth (EUCAST); conditions: Lichtheimia corymbifera, CCM8077, 24 h, read-out: MIC LC
[21] = system: Trichophyton interdigitale CCM 8377 (ATCC 9533); assay: Antifungal microdilution broth (EUCAST); conditions: Trichophyton interdigitale, 72 h, read-out: MIC TI
[22] = system: M. avium DSM 44156 (ATCC 25291); assay: Antimycobacterial MIC, microdilution broth / resazurin; type: cell-based, Mycobacterium avium; conditions: Mycobacterium avium; resazurin after 96 h; read-out: MIC M. avium
[23] = system: M. kansasii DSM 44162 (ATCC 12478); assay: as above; type: cell-based; conditions: Mycobacterium kansasii, read-out: MIC M. kansasii
[24] = system: Mtb laboratory ID IZAK; type: cell-based, Mycobacterium tuberculosis; conditions: MDR strain IZAK, CLSI breakpoints 2020
[25] = system: Mtb laboratory ID MATI; type: cell-based, Mycobacterium tuberculosis; conditions: MDR strain MATI, CLSI breakpoints 2021
[26] = 120 h, Middlebrook 7H9, resazurin after 120 h, read-out: Mtb H37Ra MIC
[27] = calculated from experimentally measured water solubility in molar concentration, read-out: Exp. log S (converted)
[28] = water, kinetic method, DMSO stock diluted to 500 μM, read-out: Solubility
[29] = recalculated from µg/mL, read-out: MICH37Ra

Structure (SMILES)	log k’w [1]	logkw [1]	IC50 [2] [µM]	MIC [3, 26] [µg/mL]	MIC [4] [µg/mL]	MIC [7] [µM]	MIC [8] [µM]	MIC [9] [µM]	MIC [10] [µM]	MIC [11] [µM]	MIC [12] [µM]	MIC [13] [µM]	MIC [14] [µM]	MIC [15] [µM]	MIC [16] [µM]	MIC [17] [µM]	MIC [18] [µM]	MIC [19] [µM]	MIC [20] [µM]	MIC [21] [µM]	other results
O=C(Nc1ncco1)c1cccnc1 [Compound 2b]	0.436	0.4358	> 1000	31.2	62.5 (≈ 330 µM)	250 (≈ 47.3 µg/mL)	500 (≈ 94.6 µg/mL)	500 (≈ 94.6 µg/mL)	> 500	> 500	> 500	> 500	500 (≈ 94.6 µg/mL)	500 (≈ 94.6 µg/mL)	250 (≈ 47.3 µg/mL)	> 500	> 500	> 500	> 500	125 (≈ 23.6 µg/mL)	MIC ([5]; resazurin after 72 h): 15.6 µg/mL (≈ 82.6 µM); logS_exp ([6]; experimental log S): -0.9171; melting point: 155 to 160 °C
O=C(Nc1nc(-c2ccccc2)cs1)c1cccnc1 [Compound 12a]	2.131	2.131	> 25	≥ 500	≥ 500	> 125	> 125	> 125	> 125	> 125	> 125	> 125	> 125	> 125	> 125	> 125	> 125	> 125	> 125	> 125	MIC ([5]; resazurin after 72 h): ≥ 500 µg/mL; MIC [22]: ≥ 500 µg/mL; MIC ([23]; resazurin after 96 h): ≥ 500 µg/mL; logS_exp ([6]; experimental log S): -3.188; solubility [6, 27]: 1 µM; solubility [6, 28]: 0.28 µg/mL
O=C(Nc1nc(-c2ccccc2)co1)c1ccnc(Cl)c1 [Compound 15b]	1.992	1.992	136	7.81	31.2 (≈ 104 µM)	62.5 (≈ 18.7 µg/mL)	62.5 (≈ 18.7 µg/mL)	250 (≈ 74.9 µg/mL)	250 (≈ 74.9 µg/mL)	> 500	500 (≈ 150 µg/mL)	> 500	500 (≈ 150 µg/mL)	500 (≈ 150 µg/mL)	500 (≈ 150 µg/mL)	500 (≈ 150 µg/mL)	> 500	> 500	> 500	500 (≈ 150 µg/mL)	SI [2]: 5.2; MIC [3, 29]: 26.1 µM; MIC ([5]; 72 h): 7.81 µg/mL (≈ 26.1 µM); MIC [22]: 15.6 µg/mL (≈ 52.1 µM); MIC ([23]; resazurin after 96 h): 15.6 µg/mL (≈ 52.1 µM); solubility [6, 27]: 417 µM; solubility [6, 28]: 124 µg/mL
[H]/N=C(/N)N[C@H]1[C@H](O)[C@@H](O)[C@H](O[C@@H]2O[C@@H](C)[C@](O)(C=O)[C@H]2O[C@@H]2O[C@@H](CO)[C@H](O)[C@@H](O)[C@@H]2NC)[C@@H](N/C(N)=N\[H])[C@@H]1O [STM, streptomycin]	–	–	–	–	–	–	–	–	–	–	–	–	–	–	–	–	–	–	–	–	Concentration (susceptibility profile) [24]: 4 µg/mL; Susceptibility [24]: resistant; Concentration (susceptibility profile) [25]: > 16 µg/mL; Susceptibility [25]: resistant
O=C(Nc1nccs1)c1cccnc1 [Compound 2a]	–	–	> 1000	250	≥ 500	> 500	> 500	> 500	> 500	> 500	> 500	> 500	> 500	> 500	> 500	> 500	> 500	> 500	> 500	> 500	MIC ([5]; resazurin after 72 h): 250 µg/mL (≈ 1220 µM); logS_exp [6]: -1.202
O=C(Nc1nccs1)c1ccnc(Cl)c1 [Compound 6a]	2.013	2.013	> 250	≥ 500	≥ 500	> 500	> 500	> 500	> 500	> 500	> 500	> 500	> 500	> 500	> 500	> 500	> 500	> 500	> 500	> 500	MIC ([5]; resazurin after 72 h): ≥ 500 µg/mL; MIC [22]: ≥ 500 µg/mL; MIC ([23]; resazurin after 96 h): ≥ 500 µg/mL; solubility [6, 27]: 126 µM; solubility [6, 28]: 29.9 µg/mL; melting point: 152 to 154 °C
O=C(Nc1nc(-c2ccccc2)cs1)c1ccnc(Cl)c1 [Compound 15a]	3.036	3.036	103	3.91	15.6 (≈ 49.5 µM)	> 500	> 500	> 500	> 500	> 500	> 500	> 500	> 125	> 125	> 125	> 125	> 125	> 125	> 125	> 125	SI [2]: 8.3; MIC [3, 29]: 12.4 µM; MIC ([5]; resazurin after 72 h): 31.2 µg/mL (≈ 99 µM); MIC [22]: 15.6 µg/mL (≈ 49.5 µM); MIC ([23]; 96 h): < 3.91 µg/mL; solubility [6, 27]: 6.61 µM; solubility [6, 28]: 2.1 µg/mL; melting point: 158 to 162 °C
NC(=O)c1cnccn1 [PZA, pyrazinamide]	–	–	–	–	–	–	–	–	–	–	–	–	–	–	–	–	–	–	–	–	Concentration (susceptibility profile) [24]: > 16 µg/mL; Susceptibility [24]: resistant; Concentration (susceptibility profile) [25]: > 128 µg/mL; Susceptibility [25]: resistant
O=C(Nc1nc(-c2ccccc2)co1)c1cccnc1 [Compound 12b]	1.118	1.118	610	125	500 (≈ 1880 µM)	500 (≈ 133 µg/mL)	> 500	62.5 (≈ 16.6 µg/mL)	> 500	> 500	> 500	> 500	> 500	> 500	> 500	> 500	> 500	> 500	> 500	> 500	MIC ([5]; resazurin after 72 h): 250 µg/mL (≈ 942 µM); logS_exp ([6]; experimental log S): -2.228; solubility [6, 27]: 437 µM; solubility [6, 28]: 116 µg/mL
